Measurements taken from ChEMBL document CHEMBL3885861, “Open TG-GATES”.

Species on record: Rattus norvegicus
Assay: Open TG-GATES - Regimen: Daily Repeat
Type: toxicity, organism-based, Sprague-Dawley
Set-up: regimen Daily Repeat, gender Male, age 6 weeks
Details: in vivo, po, 0 mg/kg, route gavage, dose level Control; for APTT / Bas / Eos / Fbg / Hb / Ht / Lym / MCH / MCHC / MCV / Mono / Neu / PT / Plat / RBC / Ret / WBC: tissue Blood; for KIDNEY_L / KIDNEY_R / KIDNEY_TOTAL: tissue Kidney; for LIVER: tissue Liver; for A/G / ALP / ALT / AST / BUN / CRE / Ca / Cl / DBIL / GLC / IP / K / LDH / Na / PL / RALB / TBIL / TC / TG / TP / gamma-GTP: tissue Plasma

C=CCO [ALLYL ALCOHOL]
TERMINAL_BW (72 h, time 3 day): 237.2 g | APTT (72 h, time 3 day): 19.1 s | Bas (72 h, time 3 day): 0% | Eos (72 h, time 3 day): 1% | Fbg (72 h, time 3 day): 221.6 mg/dL | Hb (72 h, time 3 day): 13.4 g/dL | Ht (72 h, time 3 day): 39.6% | Lym (72 h, time 3 day): 79.4% | MCH (72 h, time 3 day): 21 pg | MCHC (72 h, time 3 day): 33.8% | MCV (72 h, time 3 day): 62.1 fL | Mono (72 h, time 3 day): 2.8% | Neu (72 h, time 3 day): 16.6% | PT (72 h, time 3 day): 11.7 s | Plat (72 h, time 3 day): 133.7 x10_4/uL | RBC (72 h, time 3 day): 638 x10_4/ul | Ret (72 h, time 3 day): 5.7% | WBC (72 h, time 3 day): 129.8 x10_2/uL | KIDNEY_L (72 h, time 3 day): 1 g | KIDNEY_R (72 h, time 3 day): 1 g | KIDNEY_TOTAL (72 h, time 3 day): 2 g | LIVER (72 h, time 3 day): 11.1 g | A/G (72 h, time 3 day): 1.6 | ALP (72 h, time 3 day): 952.4 IU/L | ALT (72 h, time 3 day): 38 IU/L | AST (72 h, time 3 day): 65.8 IU/L | BUN (72 h, time 3 day): 16.2 mg/dL | CRE (72 h, time 3 day): 0.4 mg/dL | Ca (72 h, time 3 day): 10.7 mg/dL | Cl (72 h, time 3 day): 103.4 meq/L | DBIL (72 h, time 3 day): 0.088 mg/dL | GLC (72 h, time 3 day): 225.8 mg/dL | IP (72 h, time 3 day): 6.1 mg/dL | K (72 h, time 3 day): 4 meq/L | LDH (72 h, time 3 day): 245.4 IU/L | Na (72 h, time 3 day): 140.8 meq/L | PL (72 h, time 3 day): 148.2 mg/dL | RALB (72 h, time 3 day): 3.4 g/dL | TBIL (72 h, time 3 day): 0.1 mg/dL | TC (72 h, time 3 day): 77.4 mg/dL | TG (72 h, time 3 day): 110.2 mg/dL | TP (72 h, time 3 day): 5.4 g/dL | gamma-GTP (72 h, time 3 day): 0.8 IU/L | TERMINAL_BW ([…], time 7 day): 272.9 g | TERMINAL_BW ([…], time 14 day): 319.8 g | TERMINAL_BW ([…], time 28 day): 385.1 g | APTT ([…], time 7 day): 20 s | Bas ([…], time 7 day): 0% | Eos ([…], time 7 day): 1% | Fbg ([…], time 7 day): 227.6 mg/dL | Hb ([…], time 7 day): 13.3 g/dL | Ht ([…], time 7 day): 38.8% | Lym ([…], time 7 day): 79.4% | MCH ([…], time 7 day): 20.9 pg | MCHC ([…], time 7 day): 34.4% | MCV ([…], time 7 day): 60.6 fL | Mono ([…], time 7 day): 3% | Neu ([…], time 7 day): 16.2% | PT ([…], time 7 day): 11.9 s | Plat ([…], time 7 day): 136 x10_4/uL | RBC ([…], time 7 day): 640.4 x10_4/ul | Ret ([…], time 7 day): 5% | WBC ([…], time 7 day): 119.1 x10_2/uL | APTT ([…], time 14 day): 19.8 s | Bas ([…], time 14 day): 0% | Eos ([…], time 14 day): 1% | Fbg ([…], time 14 day): 229 mg/dL | Hb ([…], time 14 day): 14.2 g/dL | Ht ([…], time 14 day): 41% | Lym ([…], time 14 day): 78.2% | MCH ([…], time 14 day): 20.2 pg | MCHC ([…], time 14 day): 34.6% | MCV ([…], time 14 day): 58.5 fL | Mono ([…], time 14 day): 2.8% | Neu ([…], time 14 day): 17.6% | PT ([…], time 14 day): 12 s | Plat ([…], time 14 day): 126.7 x10_4/uL | RBC ([…], time 14 day): 701.8 x10_4/ul | Ret ([…], time 14 day): 4.1% | WBC ([…], time 14 day): 144 x10_2/uL | APTT ([…], time 28 day): 20.9 s | Bas ([…], time 28 day): 0% | Eos ([…], time 28 day): 1% | Fbg ([…], time 28 day): 220.6 mg/dL | Hb ([…], time 28 day): 15.7 g/dL | Ht ([…], time 28 day): 45.2% | Lym ([…], time 28 day): 81.8% | MCH ([…], time 28 day): 19.6 pg | MCHC ([…], time 28 day): 34.7% | MCV ([…], time 28 day): 56.5 fL | Mono ([…], time 28 day): 2.4% | Neu ([…], time 28 day): 14.4% | PT ([…], time 28 day): 11.8 s | Plat ([…], time 28 day): 111.6 x10_4/uL | RBC ([…], time 28 day): 801.6 x10_4/ul | Ret ([…], time 28 day): 2.6% | WBC ([…], time 28 day): 94.8 x10_2/uL | KIDNEY_L ([…], time 7 day): 1.1 g | KIDNEY_R ([…], time 7 day): 1.1 g | KIDNEY_TOTAL ([…], time 7 day): 2.2 g | KIDNEY_L ([…], time 14 day): 1.2 g | KIDNEY_R ([…], time 14 day): 1.2 g | KIDNEY_TOTAL ([…], time 14 day): 2.4 g | KIDNEY_L ([…], time 28 day): 1.3 g | KIDNEY_R ([…], time 28 day): 1.3 g | KIDNEY_TOTAL ([…], time 28 day): 2.6 g | LIVER ([…], time 7 day): 13.1 g | LIVER ([…], time 14 day): 14.1 g | LIVER ([…], time 28 day): 16 g | A/G ([…], time 7 day): 1.5 | ALP ([…], time 7 day): 889.2 IU/L | ALT ([…], time 7 day): 34 IU/L | AST ([…], time 7 day): 60.8 IU/L | BUN ([…], time 7 day): 16.6 mg/dL | CRE ([…], time 7 day): 0.4 mg/dL | Ca ([…], time 7 day): 10.9 mg/dL | Cl ([…], time 7 day): 102 meq/L | DBIL ([…], time 7 day): 0.098 mg/dL | GLC ([…], time 7 day): 219.6 mg/dL | IP ([…], time 7 day): 6.9 mg/dL | K ([…], time 7 day): 3.9 meq/L | LDH ([…], time 7 day): 180.4 IU/L | Na ([…], time 7 day): 140.6 meq/L | PL ([…], time 7 day): 146 mg/dL | RALB ([…], time 7 day): 3.4 g/dL | TBIL ([…], time 7 day): 0.2 mg/dL | TC ([…], time 7 day): 74 mg/dL | TG ([…], time 7 day): 124.4 mg/dL | TP ([…], time 7 day): 5.6 g/dL | gamma-GTP ([…], time 7 day): 0.8 IU/L | A/G ([…], time 14 day): 1.4 | ALP ([…], time 14 day): 766.2 IU/L | ALT ([…], time 14 day): 34.2 IU/L | AST ([…], time 14 day): 61.2 IU/L | BUN ([…], time 14 day): 14.8 mg/dL | CRE ([…], time 14 day): 0.4 mg/dL | Ca ([…], time 14 day): 10.5 mg/dL | Cl ([…], time 14 day): 101.4 meq/L | DBIL ([…], time 14 day): 0.072 mg/dL | GLC ([…], time 14 day): 234 mg/dL | IP ([…], time 14 day): 6.9 mg/dL | K ([…], time 14 day): 3.7 meq/L | LDH ([…], time 14 day): 223.2 IU/L | Na ([…], time 14 day): 140.2 meq/L | PL ([…], time 14 day): 141.2 mg/dL | RALB ([…], time 14 day): 3.4 g/dL | TBIL ([…], time 14 day): 0.1 mg/dL | TC ([…], time 14 day): 68.8 mg/dL | TG ([…], time 14 day): 101 mg/dL | TP ([…], time 14 day): 5.8 g/dL | gamma-GTP ([…], time 14 day): 1.2 IU/L | A/G ([…], time 28 day): 1.3 | ALP ([…], time 28 day): 588.4 IU/L | ALT ([…], time 28 day): 33.6 IU/L | AST ([…], time 28 day): 59.2 IU/L | BUN ([…], time 28 day): 15.4 mg/dL | CRE ([…], time 28 day): 0.5 mg/dL | Ca ([…], time 28 day): 10.5 mg/dL | Cl ([…], time 28 day): 101.8 meq/L | DBIL ([…], time 28 day): 0.068 mg/dL | GLC ([…], time 28 day): 222.2 mg/dL | IP ([…], time 28 day): 6.1 mg/dL | K ([…], time 28 day): 3.4 meq/L | LDH ([…], time 28 day): 166.6 IU/L | Na ([…], time 28 day): 140.6 meq/L | PL ([…], time 28 day): 141.8 mg/dL | RALB ([…], time 28 day): 3.5 g/dL | TBIL ([…], time 28 day): 0.1 mg/dL | TC ([…], time 28 day): 71.2 mg/dL | TG ([…], time 28 day): 100.2 mg/dL | TP ([…], time 28 day): 6.2 g/dL | gamma-GTP ([…], time 28 day): 1 IU/L
